Test results from patent US10058100B2, “Hydrogen sulfide releasing compounds and their use” (THE UNIVERSITY OF EXETER, priority 2011, dated 2018).
Entries after “also recorded” stand apart in the source; their conditions may differ.

Columns and labels:
inflammasome = experiment: Inhibition of inflammasome activity once inflammasome is activated, IL-1β ELISA in THP-1 cells; type: cell-based, human; conditions: LPS 24 hrs, then ATP and AP39 24 hrs, FIG. 36
Protocol: Human THP-1 cells were cultured in RPMI medium and exposed to bacterial endotoxin (lipopolysaccharide; LPS) (1 μg/ml) for 24 hrs, followed by ATP (5 mM) and AP39 for 24 hrs. After this time cell culture media was collected and inflammasome activity determined by measuring IL-1β levels in the culture media by commercial ELISA (Human IL-1 beta ELISA Ready-SET-Go, eBioscience) (FIG. 36). Data are mean+/−standard deviation (n=3).

peroxiredoxin 3 (Prx3) = experiment: Western blot of mitochondrial peroxiredoxin 3 oxidation in THP-1 cells; type: cell-based, human
Protocol: Human THP-1 (monocytic) cells were exposed to an oxidative stress inducing agent (hydrogen peroxide; H2O2, 25 μM) in the presence or absence of the mitochondria-targeted H2S donor AP39.
In the experiment resulting in FIG. 32, the human THP-1 (monocytic) cells were exposed to 25 μM H2O2 for 4 hours in the absence or presence of different concentrations of AP39 (given in μM).
In the experiment resulting in FIG. 33, the human THP-1 (monocytic) cells were exposed to different concentrations of AP39 (given in μM) for 4 hours followed by the addition of 25 μM H2O2 for 1 minute.
In both experiments, after these time periods the levels of native mitochondrial matrix protein peroxiredoxin 3 (Prx3) (dimer, molecular weight 37 kDa) and over-oxidised Prx3 (monomer, molecular weight 25 kDa) were determined by standard western blotting procedures (M Whiteman et al (FASEB J, 2004, 18, 1395-1397) (FIGS. 32 and 33).

mesenteric arteries = experiment: Relaxation of adrenaline precontracted rat mesenteric arteries; conditions: AP39 1-5 μM, FIG. 23 D
Protocol: The rings of thoracic aorta (approx. 3-4-mm diameter) or mesenteric artery were prepared from male Wistar rats and were mounted for recording of isometric tension changes in pneumoxid-oxygenated (95% O2:CO2, 37° C.) Krebs-bicarbonate solution as described in Ling et al., 2008 Circulation 117 […]. The aortic ring was pre-contracted with 200 nmol/l adrenaline and the effect of AP39 was evaluated (FIG. 23).

HMEC = experiment: Intracellular oxidative stress measurements (DCFDA assay); type: cell-based, human
Protocol: HMEC were incubated with H2S donor compounds for 5 hrs then H2O2, […] or SIN-1 were added for 2 hrs. Intracellular oxidative stress was then assessed using dichlorofluorescein diacetate (added at a final concentration of 10 μM) and fluorescence detected using a Gemini M2e microplate reader at 37° C. (excitation wavelength, 488 nm, emission wavelength 525 nm). The method was performed in accordance with the method described by M. Whiteman et al (Meths. Mol. Biol., 2008, 476, 29-50).

[1] = system: Human brain microvascular endothelial cells (HMEC); experiment: Prevention of cell death induced by oxidants (SIN-1, H2O2, 4-HNE), Alamar Blue; type: cell-based
[2] = biological target: T1, CAv3.1 T-type calcium channels (Homo sapiens, UniProt O43497); experiment: T-type calcium channel CAv3.1 whole cell patch-clamp in HEK 293 cells; type: cell-based; conditions: HEK293 cells, concentration and time-dependent, holding potential −100 mV, FIGS. 29-31
T1 construct: expressed in transfected cells; host or cells: HEK 293 cells, permanently transfected
Protocol: CAv3.1 calcium channels were permanently transfected in human embryonic kidney (HEK 293) cells and the calcium currents were measured by a patch-clamp method in the whole cell configuration, from a holding potential −100 mV.
The effect of four different concentrations of AP39 on the current through a Cav3.1 channel was tested (FIGS. 29-31).

[3] = system: transcription factor Nrf2; experiment: Nrf2 activation, luciferase reporter in AREc32 cells; type: cell-based, human; conditions: FIG. 34
Protocol: Nrf2 activation was studied in AREc32 cells. This stable cell line is derived from MCF-7 cells transfected with a construct containing eight copies of the rat glutathione-S-transferase-A2 Antioxidant Response […] Element (ARE) and the SV40 promoter sequence upstream of a firefly luciferase reporter gene (Wang, X. J. et al., 2006, Cancer Res, 66, 10983-94). […] After 4 h the treatments were removed and the cells were treated with sulforaphane (12.5 μM), an Nrf2-activator and positive control, for 24 hrs. Nrf-2 activation (luciferase activity) was then assessed by luminescence with a BMG labtech Omega microplate reader (FIG. 34). Data are expressed as fold induction of luciferase activity normalised to cell biomass (sulforhodamine B).

[4] = system: chloride channels derived from rat heart sarcoplasmic reticulum; experiment: Single channel properties of chloride channels in bilayer lipid membrane; type: biochemical
Protocol: Sarcoplasmic reticulum (SR) vesicles, isolated from rat heart, were fused into bilayer lipid membrane separating the cis and trans chambers, and electrical current through the single chloride channel was measured. […] The single channel parameters: Open probability, current-voltage relationship, reversal potential, mean open and close time and single current amplitude were evaluated (FIGS. 24-28).

[5] = system: anaesthetised Wistar rats; experiment: Blood pressure, heart rate and breathing rate of anaesthetised Wistar rats; type: in vivo, rat
Protocol: The mean arterial blood pressure (MAP) of anaesthetised Wistar rats was measured by a pressure transducer in the carotid artery. In ex vivo experiments, effects of AP39 were studied on noradrenaline precontracted rat aortic rings (see below). The single channel properties of intracellular chloride channels from rat heart were studied using the bilayer lipid membrane method (see below).
(§1) The catheter was inserted into the right jugular vein of male wistar rats or male spontaneously hypertensive (SHR) rats so as to reach the right atrium. Anesthesia (ZOLELIT, VIRBAC, 40 mg/kg to leg) and Xylazine 2%. AP39 solutions were prepared in 4 μl DMSO then mixed with 100 μl Krebs solution and immediately applied for 10 sec. (FIGS. 20, 21 and 22).
(§2) Blood pressure, heart rate and breathing rate were all measured at the same time, in accordance with Ling et al., 2008 Circulation 117 2351-2360.

[6] = system: spontaneously hypertensive (SHR) rats; experiment: Blood pressure, heart rate and breathing rate of anaesthetised SHR rats; type: in vivo, rat
Protocol: as §1, §2

[7] = anaesthetised Wistar rats, 1.6 μM/kg and 2.7 μM/kg AP39 injected, FIG. 20
[8] = anaesthetised Wistar rats, AP39 4 μM/kg, FIG. 22

T1 sequence (O43497 whole entry): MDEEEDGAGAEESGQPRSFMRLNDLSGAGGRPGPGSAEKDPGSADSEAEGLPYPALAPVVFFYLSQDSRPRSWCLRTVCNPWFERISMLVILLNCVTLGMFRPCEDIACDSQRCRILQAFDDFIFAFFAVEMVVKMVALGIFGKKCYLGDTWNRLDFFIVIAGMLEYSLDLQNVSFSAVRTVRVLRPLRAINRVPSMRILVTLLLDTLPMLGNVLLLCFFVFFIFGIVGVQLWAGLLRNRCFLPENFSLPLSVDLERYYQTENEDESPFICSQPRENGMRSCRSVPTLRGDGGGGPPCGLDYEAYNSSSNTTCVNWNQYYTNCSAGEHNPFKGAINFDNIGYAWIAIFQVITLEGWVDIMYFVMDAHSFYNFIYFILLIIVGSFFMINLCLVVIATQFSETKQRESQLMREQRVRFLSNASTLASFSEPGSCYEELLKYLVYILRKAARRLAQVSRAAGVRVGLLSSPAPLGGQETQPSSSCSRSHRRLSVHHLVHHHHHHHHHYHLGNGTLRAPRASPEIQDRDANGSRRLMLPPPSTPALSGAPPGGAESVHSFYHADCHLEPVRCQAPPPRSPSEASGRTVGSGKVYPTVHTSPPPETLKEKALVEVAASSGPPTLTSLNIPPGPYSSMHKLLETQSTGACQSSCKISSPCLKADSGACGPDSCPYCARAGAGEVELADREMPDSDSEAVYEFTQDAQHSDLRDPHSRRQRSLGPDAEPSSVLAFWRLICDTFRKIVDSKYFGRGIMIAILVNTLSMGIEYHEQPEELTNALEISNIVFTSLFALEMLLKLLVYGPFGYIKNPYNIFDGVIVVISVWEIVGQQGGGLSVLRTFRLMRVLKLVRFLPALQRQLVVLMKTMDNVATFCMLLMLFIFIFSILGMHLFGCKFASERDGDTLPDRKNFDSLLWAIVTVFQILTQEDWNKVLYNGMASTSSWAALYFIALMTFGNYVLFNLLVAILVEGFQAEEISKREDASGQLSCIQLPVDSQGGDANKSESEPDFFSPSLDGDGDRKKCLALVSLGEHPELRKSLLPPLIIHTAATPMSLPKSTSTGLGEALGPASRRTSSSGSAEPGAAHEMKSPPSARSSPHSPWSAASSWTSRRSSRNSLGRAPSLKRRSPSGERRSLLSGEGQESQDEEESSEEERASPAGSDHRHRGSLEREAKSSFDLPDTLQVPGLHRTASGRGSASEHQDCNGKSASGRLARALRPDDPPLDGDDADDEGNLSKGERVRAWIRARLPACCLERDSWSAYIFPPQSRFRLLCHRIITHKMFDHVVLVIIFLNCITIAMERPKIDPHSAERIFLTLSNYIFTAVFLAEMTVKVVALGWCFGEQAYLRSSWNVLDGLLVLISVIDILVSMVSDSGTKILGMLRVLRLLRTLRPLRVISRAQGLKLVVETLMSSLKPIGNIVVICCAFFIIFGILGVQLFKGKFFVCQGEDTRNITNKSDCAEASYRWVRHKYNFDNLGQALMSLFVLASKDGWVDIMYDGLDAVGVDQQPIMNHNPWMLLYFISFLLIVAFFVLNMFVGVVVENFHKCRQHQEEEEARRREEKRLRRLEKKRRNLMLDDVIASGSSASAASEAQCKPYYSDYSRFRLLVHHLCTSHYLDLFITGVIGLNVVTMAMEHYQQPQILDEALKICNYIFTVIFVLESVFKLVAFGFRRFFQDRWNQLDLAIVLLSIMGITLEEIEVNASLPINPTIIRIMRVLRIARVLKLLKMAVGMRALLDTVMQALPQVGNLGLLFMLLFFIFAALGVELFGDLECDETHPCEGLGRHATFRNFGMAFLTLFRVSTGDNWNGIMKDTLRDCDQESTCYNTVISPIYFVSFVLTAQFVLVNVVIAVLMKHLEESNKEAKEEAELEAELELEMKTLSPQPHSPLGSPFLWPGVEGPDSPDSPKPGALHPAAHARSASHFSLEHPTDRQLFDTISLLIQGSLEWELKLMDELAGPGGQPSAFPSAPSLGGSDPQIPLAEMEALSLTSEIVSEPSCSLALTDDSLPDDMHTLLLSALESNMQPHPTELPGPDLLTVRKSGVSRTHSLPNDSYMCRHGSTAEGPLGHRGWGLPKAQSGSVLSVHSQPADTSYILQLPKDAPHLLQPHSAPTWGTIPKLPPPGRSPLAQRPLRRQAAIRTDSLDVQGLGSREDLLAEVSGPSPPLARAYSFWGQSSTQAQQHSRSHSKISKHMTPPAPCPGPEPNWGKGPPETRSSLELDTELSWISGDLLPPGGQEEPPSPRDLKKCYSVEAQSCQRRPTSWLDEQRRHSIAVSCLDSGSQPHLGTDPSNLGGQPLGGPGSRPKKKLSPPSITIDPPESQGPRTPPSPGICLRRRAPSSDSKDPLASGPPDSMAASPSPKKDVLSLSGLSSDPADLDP

O=C(CCCCCCCCC[P+](c1ccccc1)(c1ccccc1)c1ccccc1)Oc1ccc(-c2cc(=S)ss2)cc1.[Br-] [AP39]
inflammasome activity after activation by LPS/ATP (IL-1β levels) (inflammasome): inhibited
Prx3 oxidation by H2O2 (peroxiredoxin 3 (Prx3); 5 μM AP39 for 4 hours then 25 μM H2O2 for 1 minute, FIG. 33): reduced
levels of the over-oxidised monomeric form of Prx3 (peroxiredoxin 3 (Prx3); 25 μM H2O2, increasing concentrations of AP39, FIGS. 32 and 33): reduced
vasodilatory effect on adrenaline-precontracted mesenteric arteries (mesenteric arteries): vasodilatory effects
4-HNE-derived intracellular oxidant species (DCFDA assay) (HMEC; AP39 100 nM, FIGS. 14 and 15): significantly reduced; also recorded: significantly decreased
time dependent increase in intracellular oxidative stress (DCFDA assay) (HMEC; pretreatment with AP39 100 nM, FIG. 15): reduced
H2O2-induced cytotoxicity [1]: inhibited
SIN-1 and 4-HNE induced cell death [1]: significantly inhibited
cell death induced by 4-HNE [1]: significantly inhibited
cell death induced by SIN-1 [1]: significantly inhibited
concentration mediating inhibition of cell death, mitochondrial dysfunction and oxidative stress [1]: 50 to 200 nM
concentration of AP39 inhibiting CAv3.1 T-type calcium channels [2]: > 300 nM
Nrf2 transcription factor activation (luciferase activity) ([3]; AREc32 cells, AP39 6.25 μM pre-treatment 4 h): activates
potency at inducing Nrf2 activation compared with GYY4137 ([3]; equimolar concentrations (6.25 μM)): more potent
mean open time of the channel ([4]; AP39 20 μmol/l, 0 mV, control 11 ms, FIG. 27): 33 ms
amplitude of the electrical current through the single chloride channels ([4]; AP39 20 and 40 μM, 0 mV, FIGS. 24 and 25): increased
channel open probability ([4]; FIGS. 24-28): increased
mean chloride channel open time, concentration dependence ([4]; concentration dependent manner, FIG. 28): increased
conductance of chloride channels ([4]; control channel 125 pS, FIG. 26): increased
Cl−/K+ channel permeability ratio ([4]; control ratio 9.6, FIG. 26): did not influence
channel reversal potential ([4]; with AP39, control ~−31 mV, FIG. 26): ~−31 mV
blood pressure [5, 7]: reduced
breathing rate [5, 7]: transiently increased
heart rate [5, 7]: reduced
blood pressure [5, 8]: sustained blood pressure (A) and heart rate (B) lowering effects
heart rate [5, 8]: sustained blood pressure (A) and heart rate (B) lowering effects
effectiveness relative to Na2S at influencing blood pressure, heart rate and breathing rate ([5]; rats, FIGS. 20 to 22): 10-50 times
blood pressure ([6]; SHR rats, 1.5 μM/kg AP39 injected, FIG. 21): Sustained blood pressure lowering effects
heart rate ([6]; hypertensive (SHR) rats, AP39, summary statement): reducing
